Results taken from patent publication US20210330756A1, “Acetylation of Miro1” (University of South Carolina, priority 2020, published 2021).

Experiments:
Miro1 = assay: Anti-Ac-Lys immunoprecipitation of Miro1 from DRG lysates; assay type: cell-based, rat
Procedure: Protein acetylome profiles from nonneuronal cells have reported acetylation of Miro1/2 and Milton 1/2 but not of Syntaphilin (Choudhary et al., 2009; Lundby et al., 2012; Wagner et al., 2012).
DRG neurons were lysed in 100 mM KCl, 5 mM MgCl2, 10 mM Hepes, pH 7.4, 1 mM DTT, and 0.5% NP-40 supplemented with lx protease inhibitor cocktail (Roche). The lysates were passed through a 25-gauge needle five times and cleared by centrifugation at 12,000 g for […]. Equal amounts of the supernatants were then incubated with primary antibodies overnight, and immunocomplexes were precipitated with Protein G-Dynabeads (Invitrogen) for an additional 2 h at 4° C. with rotation. A cocktail of rabbit and mouse anti-Ac-Lys antibodies (5 μg each; Cell Signaling; 9441 and 9681) was used directly for analyses of Myc-Miro1 transfected cultures by immunoprecipitation. For analysis of endogenous Miro1 acetylation, the anti-Lys antibody cocktail (5 μg of each) was directly cross-linked to 5 mg of M-270 epoxy beads (Dynabeads) using the Dynabeads antibody coupling kit according to the manufacturer's instructions (Life Technologies; 14311D). […]
For immunoblotting, protein lysates or immunoprecipitates were denatured by boiling in Laemmli sample buffer, fractionated by SDS-PAGE, and transferred to nitrocellulose membranes. […] Signals were detected using ECL Prime (GE Healthcare) after extensive washing.

[1] = tested on: axons of adult mouse DRG neurons; assay: Microfluidic devices: exposure limited to axons of DRG neurons; assay type: cell-based
Text: To determine if the effect of growth inhibitors on mitochondrial recovery was limited to distal axons, we performed FRAP on more proximal segments of the axon shaft in DRG neurons expressing Mito-GFP. For analyses of recovery, the bleached ROIs were divided into four subregions along the axon length so that we could distinguish anterograde from retrograde transport-driven Mito-GFP recovery. […] Since this effect of MAG-Fc on recovery could derive from either axons or cell body, we cultured dissociated DRGs in microfluiclic devices where we could limit exposure to MAG-Fc and TubA to the axons.
For primary culture of rat DRG neurons, L4-5 DRG were harvested in Hibernate-A medium (BrainBits) and then dissociated using type I collagenase (50 U/ml; Gibco) for 20 min at 37° C. and 5% CO2(Twiss et al., 2000). Dissociated ganglia were cultured in complete medium containing 10% FetalPlex animal serum complex (Gemini), 1% N1 Supplement (Sigma-Aldrich), and 10 μM cytosine-arabinoside (Sigma-Aldrich) on laminin/poly-L-lysine-coated substrates. Mouse neurons were used for cultures in microfluidic devices. For these, all cervical, thoracic, and lumbar DRGs were collected and digested with collagenase (4 mg/ml, Worthington) and dispase (1 mg/ml; Sigma-Aldrich) for 45 min at 37° C. and 5% CO2; these cells were plated in DMEM/F12 and 10% FBS at 37° C. and 5% CO2. […]

CN1CCc2c(c3ccccc3n2Cc2ccc(C(=O)NO)cc2)C1 [TubA, tubastatin]
pull-down efficiency of Miro1 with anti-Ac-Lys antibody cocktail (Miro1; 10 μM TubA for 4 h, n=4): 14.1±2.2%
anti-Ac-Lys immunoprecipitated Miro1 band (Miro1; treatment with TubA): modestly increasing
effect on MAG-Fc-dependent decrease in distal axon mitochondria ([1]; TubA in axonal compartment): prevented by TubA treatment
axon retraction and end bulb formation in distal axons after MAG-Fc ([1]; TubA treatment): prevented the axon retraction and end bulb formation
